In US20260297060A1, “COMPOUNDS FOR THE DEGRADATION OF MUTANT BRAF” (C4 THERAPEUTICS, INC., priority 2023, published 2026):

Target: T1, human bile salt export pump (BSEP) efflux transporter (Homo sapiens, UniProt O95342)
T1 construct: purchased SOLVO Biotechnology Charles River Laboratories, Szeged, Hungary; host or cells: HEK293 (inside out membrane vesicles)
Test: BSEP Vesicular Transport Inhibition Assay (IC50 determination)
Type: biochemical
Settings: human BSEP (HEK293) vesicles, taurocholate 0.2 μM, 4 mM Mg-ATP, 10 concentrations, 1 replicate
Procedure: The vesicular transport (VT) assays were performed using inside out membrane vesicles derived from HEK293 cells expressing the specified human bile salt export pump (BSEP) efflux transporter. The membrane vesicles were procured from SOLVO Biotechnology Charles River Laboratories, Szeged, Hungary.
The principle of the assay relies on measuring the accumulation of substrate into inside out vesicles containing the efflux transporter. By utilizing inside out vesicles, the ATP-dependent transport of substrate is directed into the vesicular lumen, where low permeability compounds are then essentially trapped.
For the IC50 screen inhibition assay, 10 concentrations of each compound were tested in the presence of ATP (active transport) in 1 replicate.
The solvent control (DMSO) was tested in the presence of ATP (active transport) and in the presence of AMP (background) in 8 replicates.
Vesicular transport inhibition assays were performed using the specific parameters for each transporter inhibition assay described in Table 53.
Table 54 specifies treatment groups and concentration of compounds, that were examined in the vesicular transport inhibition assay. Detailed data of IC50 screen inhibition assay are shown in Table 55 and detailed data of 1 concentration inhibition assay are shown in Table 56.
The vesicular transport inhibition assay was performed with 4 mM Mg-ATP. For the IC50 screen inhibition assay, 10 concentrations of each compound were tested in the presence of ATP in 1 replicate. For the 1 concentration inhibition assay, 1 concentration of each compound was tested in the presence of ATP (active transport) in 2 replicates. The solvent control (DMSO) was tested in the presence of 4 mM Mg-ATP (active transport) and in the presence of 4 mM AMP (background) in 8 replicates.
The BSEP membrane vesicle suspension was mixed with the ice-cold transport buffer, then the taurocholate probe substrate solution was added (Reaction mixture, 50 μL per well). The compounds were added to the reaction mixture at 1.5-times the final assay concentration. […].
Reaction mixtures and the start reagent (Mg-ATP or AMP in transport buffer) were pre-warmed separately for 15 minutes to reach the incubation temperature of 37° C. […]
The reaction was initiated by the addition of the start reagent (25 μL) to the reaction mixture (diluting the reaction mixture to the final concentration). […] After the 5-minute incubation at 37° C., the reaction was stopped by the addition of 250 μL ice-cold washing mix to each well. […]
The samples were then be transferred to a filter plate and washed with 200 μL cold washing mix5-times to remove any free compounds or taurocholate probe substrate. The amount of taurocholate probe substrate inside the filtered vesicles were determined by liquid scintillation counting. […]

T1 sequence (O95342 whole entry): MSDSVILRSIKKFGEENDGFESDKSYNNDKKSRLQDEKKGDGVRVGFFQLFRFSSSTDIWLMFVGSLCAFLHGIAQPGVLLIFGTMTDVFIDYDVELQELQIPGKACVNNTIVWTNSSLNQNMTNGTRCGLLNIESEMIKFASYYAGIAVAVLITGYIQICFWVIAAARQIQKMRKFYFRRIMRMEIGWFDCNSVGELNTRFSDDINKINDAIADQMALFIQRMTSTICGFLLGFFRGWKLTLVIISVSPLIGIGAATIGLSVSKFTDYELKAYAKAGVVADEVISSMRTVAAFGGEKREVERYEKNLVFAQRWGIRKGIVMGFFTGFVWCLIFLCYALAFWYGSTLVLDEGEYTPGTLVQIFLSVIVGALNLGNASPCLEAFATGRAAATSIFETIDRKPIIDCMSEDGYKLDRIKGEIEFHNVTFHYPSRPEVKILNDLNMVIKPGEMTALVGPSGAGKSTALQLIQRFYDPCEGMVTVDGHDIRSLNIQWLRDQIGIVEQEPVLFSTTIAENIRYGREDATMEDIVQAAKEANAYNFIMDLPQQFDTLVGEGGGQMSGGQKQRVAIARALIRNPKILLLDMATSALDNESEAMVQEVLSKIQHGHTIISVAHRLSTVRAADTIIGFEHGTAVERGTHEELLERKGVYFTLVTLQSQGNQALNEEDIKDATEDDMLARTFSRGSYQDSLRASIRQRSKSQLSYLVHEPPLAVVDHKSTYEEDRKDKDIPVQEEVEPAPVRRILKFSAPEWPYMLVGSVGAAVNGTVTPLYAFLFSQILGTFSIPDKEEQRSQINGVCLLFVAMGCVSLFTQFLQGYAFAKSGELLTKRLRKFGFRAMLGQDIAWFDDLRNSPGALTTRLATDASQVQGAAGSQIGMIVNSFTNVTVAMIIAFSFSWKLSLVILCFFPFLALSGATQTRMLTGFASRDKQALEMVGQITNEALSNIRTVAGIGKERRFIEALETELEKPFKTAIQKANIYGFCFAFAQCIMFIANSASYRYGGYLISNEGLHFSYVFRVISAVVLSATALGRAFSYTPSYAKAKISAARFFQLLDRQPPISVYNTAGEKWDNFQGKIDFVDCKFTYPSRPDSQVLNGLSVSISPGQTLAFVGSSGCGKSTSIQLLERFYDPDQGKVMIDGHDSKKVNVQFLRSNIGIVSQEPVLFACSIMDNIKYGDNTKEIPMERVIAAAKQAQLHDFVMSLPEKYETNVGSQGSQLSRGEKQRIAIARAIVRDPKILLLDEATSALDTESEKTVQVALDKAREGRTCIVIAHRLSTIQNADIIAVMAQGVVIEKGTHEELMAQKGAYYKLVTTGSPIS

SMILES | BSEP Inhibition/IC50 [µM] | BSEP Inhibition/IC50 (in nM)
CCN(C)S(=O)(=O)Nc1ccc(F)c(Oc2ccc3ncn([C@H]4COC5(CCN(C6CCC(c7cc8c(cc7F)c(N7CCC(=O)NC7=O)nn8C)CC6F)CC5)C4)c(=O)c3c2)c1C#N (single isomer, unassigned) [Compound 28] | 1.96 | –
CCN(C)S(=O)(=O)Nc1ccc(F)c(Oc2ccc3ncn([C@@H]4CCC5(CCN(C6CCC(c7cc8c(cc7F)c(N7CCC(=O)NC7=O)nn8C)CC6)CC5)C4)c(=O)c3c2)c1C#N (single isomer, unassigned) [Compound 31] | 4.23 | –
CCN(C)S(=O)(=O)Nc1ccc(F)c(Oc2ccc3ncn([C@H]4CCC5(CCN(C6CCC(c7cc8c(cc7F)c(N7CCC(=O)NC7=O)nn8C)CC6)CC5)C4)c(=O)c3c2)c1C#N (single isomer, unassigned) [Compound 33] | – | 10060
CCN(C)S(=O)(=O)Nc1ccc(F)c(Oc2ccc3ncn([C@H]4COC5(CCC(N6CCC(c7cc8c(cc7F)c(N7CCC(=O)NC7=O)nn8C)C(F)(F)C6)CC5)C4)c(=O)c3c2)c1C#N (single isomer, unassigned) [Compound 38] | – | 963.6
CCN(C)S(=O)(=O)Nc1ccc(F)c(Oc2ccc3ncn([C@H]4COC5(CCC(N6CCC(c7cc8c(cc7F)c(N7CCC(=O)NC7=O)nn8C)C(F)(F)C6)CC5)C4)c(=O)c3c2)c1C#N (single isomer, unassigned) [Compound 39] | 1.56 | –
CCN(C)S(=O)(=O)Nc1ccc(F)c(Oc2ccc3ncc([C@@H]4COC5(CCN(C6CCC(c7cc8c(cc7F)c(N7CCC(=O)NC7=O)nn8C)CC6)CC5)C4)nc3c2)c1C#N (single isomer, unassigned) [Compound 54] | – | 11010
CCN(C)S(=O)(=O)Nc1ccc(F)c(Oc2ccc3ncc([C@@H]4COC5(CCN(C6CCC(c7ccc(NC8CCC(=O)NC8=O)cc7F)CC6)CC5)C4)nc3c2)c1C#N (single isomer, unassigned) [Compound 60] | 7.88 | –
CCN(C)S(=O)(=O)Nc1ccc(F)c(Oc2ccc3ncn([C@H]4COC5(CCN(C6CC(c7cc8c(cc7F)c(N7CCC(=O)NC7=O)nn8C)C6)CC5)C4)c(=O)c3c2)c1C#N (single isomer, unassigned) [Compound 70] | 2.08 | –
CCN(C)S(=O)(=O)Nc1ccc(F)c(Oc2ccc3ncn(C4CC5(CCN(C6CCC(c7cc8c(cc7F)c(N7CCC(=O)NC7=O)nn8C)CC6F)CC5)C4)c(=O)c3c2)c1C#N (single isomer, unassigned) [Compound 83, 6-[2-cyano-3-[[ethyl(methyl)sulfamoyl]amino]-6-fluoro-phenoxy]-3-[7-[4-[3-(2,4-dioxohexahydropyrimidin-1-yl)-5-fluoro-1-methyl-indazol-6-yl]-2-fluoro-cyclohexyl]-7-azaspiro[3.5]nonan-2-yl]-4-oxo-quinazoline] | – | 14100
CCN(C)S(=O)(=O)Nc1ccc(F)c(Oc2ccc3ncn(C4CC5(CCN(C6CCC(c7cc8c(cc7F)c(N7CCC(=O)NC7=O)nn8C)CC6F)CC5)C4)c(=O)c3c2)c1C#N (single isomer, unassigned) [Compound 85] | 9.81 | –
CCN(C)S(=O)(=O)Nc1ccc(F)c(Oc2ccc3ncn(C4CC5(CCN(C6CCC(c7cc8c(cc7F)c(N7CCC(=O)NC7=O)nn8C)CC6F)CC5)C4)c(=O)c3c2)c1C#N (single isomer, unassigned) [Compound 86] | 9.88 | –
Cn1nc(N2CCC(=O)NC2=O)c2cc(F)c(C3CCC(N4CCC5(CC4)CC(n4cnc6ccc(Oc7c(F)ccc(NS(=O)(=O)C8CCCC8)c7C#N)cc6c4=O)C5)CC3)cc21 (single isomer, unassigned) [Compound 93, N-[2-cyano-3-[3-[7-[4-[3-(2,4-dioxohexahydropyrimidin-1-yl)-5-fluoro-1-methyl-indazol-6-yl]cyclohexyl]-7-azaspiro[3.5]nonan-2-yl]-4-oxo-quinazolin-6-yl]oxy-4-fluoro-phenyl]cyclopentanesulfonamide] | – | >40000
CCN(C)S(=O)(=O)Nc1ccc(F)c(Oc2ccc3ncc(OCC4CCN(C5CCC(c6cc7c(cc6F)c(N6CCC(=O)NC6=O)nn7C)CC5)CC4)nc3c2)c1C#N (single isomer, unassigned) [Compound 118, 7-[2-cyano-3-[[ethyl(methyl)sulfamoyl]amino]-6-fluoro-phenoxy]-2-[[1-[4-[3-(2,4-dioxohexahydropyrimidin-1-yl)-5-fluoro-1-methyl-indazol-6-yl]cyclohexyl]-4-piperidyl]methoxy]quinoxaline] | – | >40000
CN(CCO)S(=O)(=O)Nc1ccc(F)c(Oc2ccc3ncn(C4CC5(CCN(C6CCC(c7cc8c(cc7F)c(N7CCC(=O)NC7=O)nn8C)CC6F)CC5)C4)c(=O)c3c2)c1C#N (single isomer, unassigned) [Compound 145, 6-[2-cyano-6-fluoro-3-[[2-hydroxyethyl(methyl)sulfamoyl]amino]phenoxy]-3-[7-[4-[3-(2,4-dioxohexahydropyrimidin-1-yl)-5-fluoro-1-methyl-indazol-6-yl]-2-fluoro-cyclohexyl]-7-azaspiro[3.5]nonan-2-yl]-4-oxo-quinazoline] | – | 21630
CCN(C)S(=O)(=O)Nc1ccc(F)c(Oc2ccc3ncc([C@H]4COC5(CCN(C6CCC(c7cc8c(cc7F)c(N7CCC(=O)NC7=O)nn8C)CC6F)CC5)C4)nc3c2)c1C#N (single isomer, unassigned) [Compound 160] | 1.58 | –
CCN(C)S(=O)(=O)Nc1ccc(F)c(Oc2ccc3ncc(C4CC5(CCN(C6CCC(c7cc8c(cc7F)c(N7CCC(=O)NC7=O)nn8C)CC6)CC5)C4)nc3c2)c1C#N (single isomer, unassigned) [Compound 180, 7-[2-cyano-3-[[ethyl(methyl)sulfamoyl]amino]-6-fluoro-phenoxy]-2-[7-[4-[3-(2,4-dioxohexahydropyrimidin-1-yl)-5-fluoro-1-methyl-indazol-6-yl]cyclohexyl]-7-azaspiro[3.5]nonan-2-yl]quinoxaline] | – | 12180
CCN(C)S(=O)(=O)Nc1ccc(F)c(Oc2ccc3ncn([C@H]4COC5(CCN(C6CC7(C6)CN(c6cc8c(cc6F)c(N6CCC(=O)NC6=O)nn8C)C7)CC5)C4)c(=O)c3c2)c1C#N [Compound 26, (3R)-3-[6-[2-cyano-3-[[ethyl(methyl)sulfamoyl]amino]-6-fluoro-phenoxy]-4-oxo-quinazolin-3-yl]-8-[2-[3-(2,4-dioxohexahydropyrimidin-1-yl)-5-fluoro-1-methyl-indazol-6-yl]-2-azaspiro[3.3]heptan-6-yl]-1-oxa-8-azaspiro[4.5]decane] | – | 21770
CCN(C)S(=O)(=O)Nc1ccc(F)c(Oc2ccc3ncn([C@H]4COC5(CCC(N6CC7(CN(c8ccc(NC9CCC(=O)NC9=O)cc8F)C7)C6)CC5)C4)c(=O)c3c2)c1C#N (stereo partly drawn) [Compound 30, 6-[2-cyano-3-[[ethyl(methyl)sulfamoyl]amino]-6-fluoro-phenoxy]-3-[(3R)-8-[6-[4-[(2,6-dioxo-3-piperidyl)amino]-2-fluoro-phenyl]-2,6-diazaspiro[3.3]heptan-2-yl]-1-oxaspiro[4.5]decan-3-yl]-4-oxo-quinazoline] | 8.52 | –
CCN(C)S(=O)(=O)Nc1ccc(F)c(Oc2ccc3ncn(C4CC5(CCN(C6CC7(C6)CN(c6cc8c(cc6F)c(N6CCC(=O)NC6=O)nn8C)C7)CC5)C4)c(=O)c3c2)c1C#N (stereo not shown) [Compound 141, 6-[2-cyano-3-[[ethyl(methyl)sulfamoyl]amino]-6-fluoro-phenoxy]-3-[7-[2-[3-(2,4-dioxohexahydropyrimidin-1-yl)-5-fluoro-1-methyl-indazol-6-yl]-2-azaspiro[3.3]heptan-6-yl]-7-azaspiro[3.5]nonan-2-yl]-4-oxo-quinazoline] | – | >40000
